In patent US11247990B1, “Bicyclic fused pyridine compounds as inhibitors of TAM kinases” (ARRAY BIOPHARMA INC., priority 2017, dated 2022):

Target: GST-tagged recombinant human TYRO3 kinase domain (Homo sapiens (Human), UniProt Q06418)
Assay: TYRO3 Enzyme Assay (LanthaScreen Eu Kinase Binding, TR-FRET)
Conditions: averaged IC50
Procedure: Compounds of Formula I were screened for their ability to inhibit TYRO3 kinase using Invitrogen's LanthaScreen™ Eu Kinase Binding technology. […] After a 60-minute incubation at 22° C., the reaction was measured using a PerkinElmer EnVision multimode plate reader via TR-FRET dual wavelength detection, and the percent of control (POC) calculated using a ratiometric emission factor. […] The POC values were fit to a 4 parameter logistic curve and the IC50 value is point where the curve crosses 50 POC.

Chain of GST-tagged recombinant human TYRO3 kinase domain (Q06418 518-790): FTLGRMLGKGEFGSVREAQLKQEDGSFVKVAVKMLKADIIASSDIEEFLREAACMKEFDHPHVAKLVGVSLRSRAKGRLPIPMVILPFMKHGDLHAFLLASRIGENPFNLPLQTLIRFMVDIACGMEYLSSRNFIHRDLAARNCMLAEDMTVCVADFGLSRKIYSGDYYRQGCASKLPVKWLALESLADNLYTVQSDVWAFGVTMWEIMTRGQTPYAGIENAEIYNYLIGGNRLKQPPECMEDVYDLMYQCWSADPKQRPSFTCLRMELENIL

| IC50 [µM] | SMILES |
| --- | --- |
| < 0.01 | Cn1cc(-c2nn([C@H]3CC[C@@H](Oc4ccc(=O)n(C)n4)CC3)c3cc(Nc4cccc(F)c4)ncc23)cn1 [Example 66] |
| 1 to 10 | CNc1cc2c(cn1)c(-c1ccc(F)cc1)nn2[C@H]1CC[C@@H](Oc2ccccn2)CC1 [Example 118, 3-(4-fluorophenyl)-N-methyl-1-((1s,4s)-4-(pyridin-2-yloxy)cyclohexyl)-1H-pyrazolo[4,3-c]pyridin-6-amine] |
| 1 to 10 | CNc1cc2c(cn1)c(-c1cnn(C)c1)nn2[C@H]1CC[C@H](Oc2cccnn2)CC1 [Example 119, N-methyl-3-(1-methyl-1H-pyrazol-4-yl)-1-((1r,4r)-4-(pyridazin-3-yloxy)cyclohexyl)-1H-pyrazolo[4,3-c]pyridin-6-amine] |
| 1 to 10 | CNc1cc2c(cn1)c(-c1cnn(C)c1)nn2[C@H]1CC[C@@H](Oc2cccnn2)CC1 [Example 120, N-methyl-3-(1-methyl-1H-pyrazol-4-yl)-1-((1s,4s)-4-(pyridazin-3-yloxy)cyclohexyl)-1H-pyrazolo[4,3-c]pyridin-6-amine] |
| 1 to 10 | CNc1cc2c(cn1)c(-c1cnn(C)c1)nn2[C@H]1CC[C@H](Oc2ccnc(C)c2)CC1 [Example 121, N-methyl-3-(1-methyl-1H-pyrazol-4-yl)-1-((1r,4r)-4-((2-methylpyridin-4-yl)oxy)cyclohexyl)-1H-pyrazolo[4,3-c]pyridin-6-amine] |
| 1 to 10 | CNc1cc2c(cn1)c(-c1cnn(C)c1)nn2[C@H]1CC[C@@H](Oc2ccc(C#N)cn2)CC1 [Example 127, 6-(((1s,4s)-4-(3-(1-methyl-1H-pyrazol-4-yl)-6-(methylamino)-1H-pyrazolo[4,3-c]pyridin-1-yl)cyclohexyl)oxy)nicotinonitrile] |
| 1 to 10 | CNc1cc2c(cn1)c(-c1cnn(C)c1)nn2[C@H]1CC[C@@H](Oc2ccc(OC)nc2)CC1 [Example 130, 1-((1s,4s)-4-((6-methoxypyridin-3-yl)oxy)cyclohexyl)-N-methyl-3-(1-methyl-1H-pyrazol-4-yl)-1H-pyrazolo[4,3-c]pyridin-6-amine] |
| 1 to 10 | CNc1cc2c(cn1)c(-c1cnn(C)c1)nn2[C@H]1CC[C@@H](Oc2ccc(OCc3ccccc3)nc2)CC1 [Example 131, 1-((1s,4s)-4-((6-(benzyloxy)pyridin-3-yl)oxy)cyclohexyl)-N-methyl-3-(1-methyl-1H-pyrazol-4-yl)-1H-pyrazolo[4,3-c]pyrdin-6-amine] |
| 1 to 10 | CNc1cc2c(cn1)c(-c1cnn(C)c1)nn2[C@H]1CC[C@@H](Oc2cccc(C(F)(F)F)n2)CC1 [Example 174, N-methyl-3-(1-methyl-1H-pyrazol-4-yl)-1-((1s,4s)-4-((6-(trifluoromethyl)pyridin-2-yl)oxy)cyclohexyl)-1H-pyrazolo[4,3-c]pyridin-6-amine] |
| 1 to 10 | CNC(=O)c1ncccc1O[C@H]1CC[C@@H](n2nc(-c3cnn(C)c3)c3cnc(NC)cc32)CC1 [Example 276, N-methyl-3-(((1s,4s)-4-(3-(1-methyl-1H-pyrazol-4-yl)-6-(methylamino)-1H-pyrazolo[4,3-c]pyridin-1-yl)cyclohexyl)oxy)picolinamide] |

More lines, now with the values behind:

| SMILES | IC50 [µM] |
| --- | --- |
| CNc1cc2c(cn1)c(-c1cnc(N3CCOCC3)nc1)nn2[C@H]1CC[C@@H](Oc2ccc(=O)n(C)n2)CC1 [Example 51, 2-methyl-6-(((1s,4s)-4-(6-(methylamino)-3-(2-morpholinopyrimidin-5-yl)-1H-pyrazolo[4,3-c]pyridin-1-yl)cyclohexyl)oxy)pyridazin-3(2H)-one] | 1 to 10 |
| CNc1cc2c(cn1)c(-c1cncc(C(F)(F)F)c1)nn2[C@H]1CC[C@@H](Oc2ccc(=O)n(C)n2)CC1 [Example 52, 2-methyl-6-(((1s,4s)-4-(6-(methylamino)-3-(5-(trifluoromethyl)pyridin-3-yl)-1H-pyrazolo[4,3-c]pyridin-1-yl)cyclohexyl)oxy)pyridazin-3(2H)-one] | 1 to 10 |
| CCNc1cc2c(cn1)c(-c1cnn(C(C)(C)C#N)c1)nn2[C@H]1CC[C@@H](Oc2ccc(=O)n(CC)n2)CC1 [Example 57, 2-(4-(1-((1s,4s)-4-((1-ethyl-6-oxo-1,6-dihydropyridazin-3-yl)oxy)cyclohexyl)-6-(ethylamino)-1H-pyrazolo[4,3-c]pyridin-3-yl)-1H-pyrazol-1-yl)-2-methylpropanenitrile] | 1 to 10 |
| CCNc1cc2c(cn1)c(-c1ccc(CN3CC(F)C3)cc1)nn2[C@H]1CC[C@@H](Oc2ccc(=O)n(C)n2)CC1 [Example 62, 6-(((1s,4s)-4-(6-(ethylamino)-3-(4-((3-fluoroazetidin-1-yl)methyl)phenyl)-1H-pyrazolo[4,3-c]pyridin-1-yl)cyclohexyl)oxy)-2-methylpyridazin-3(2H)-one] | 1 to 10 |
| CNc1cc2c(cn1)c(-c1ccn(C)n1)cn2[C@H]1CC[C@@H](Oc2ccc(=O)n(C)n2)CC1 [Example 74, 2-methyl-6-(((1s,4s)-4-(3-(1-methyl-1H-pyrazol-3-yl)-6-(methylamino)-1H-pyrrolo[3,2-c]pyridin-1-yl)cyclohexyl)oxy)pyridazin-3(2H)-one] | 1 to 10 |
| CNc1cc2c(cn1)c(-c1cnn(C)c1)nn2[C@H]1CC[C@@H](Oc2cc(=O)cnn2C)CC1 [Example 114, 1-methyl-6-(((1s,4s)-4-(3-(1-methyl-1H-pyrazol-4-yl)-6-(methylamino)-1H-pyrazolo[4,3-c]pyridin-1-yl)cyclohexyl)oxy)pyridazin-4(1H)-one] | 1 to 10 |
| CNc1cc2c(cn1)c(-c1cnn(C)c1)nn2[C@H]1CC[C@@H](Oc2ccc(OC)nn2)CC1 [Example 123, 1-((1s,4s)-4-((6-methoxypyridazin-3-yl)oxy)cyclohexyl)-N-methyl-3-(1-methyl-1H-pyrazol-4-yl)-1H-pyrazolo[4,3-c]pyridin-6-amine] | 1 to 10 |
| CNc1cc2c(cn1)c(-c1cnn(C)c1)nn2[C@H]1CC[C@@H](Oc2nccc(C)n2)CC1 [Example 126, N-methyl-3-(1-methyl-1H-pyrazol-4-yl)-1-((1s,4s)-4-((4-methylpyrimidin-2-yl)oxy)cyclohexyl)-1H-pyrazolo[4,3-c]pyridin-6-amine] | 1 to 10 |
| CNc1cc2c(cn1)c(-c1cnn(C)c1)nn2[C@H]1CC[C@@H](Oc2cncnc2)CC1 [Example 141, N-methyl-3-(1-methyl-1H-pyrazol-4-yl)-1-((1s,4s)-4-(pyrimidin-5-yloxy)cyclohexyl)-1H-pyrazolo[4,3-c]pyridin-6-amine] | 1 to 10 |
| CNc1cc2c(cn1)c(-c1cnn(C)c1)nn2C1CCC(Oc2cc(N(C)C)cnn2)CC1 (stereo not shown) [Example 154, 1-((1s,4s)-4-((5-(dimethylamino)pyridazin-3-yl)oxy)cyclohexyl)-N-methyl-3-(1-methyl-1H-pyrazol-4-yl)-1H-pyrazolo[4,3-c]pyridin-6-amine] | 1 to 10 |
| CNc1cc2c(cn1)c(-c1cnn(C)c1)nn2[C@H]1CC[C@@H](Oc2nc(C)ncc2OC)CC1 [Example 176, 1-((1s,4s)-4-((5-methoxy-2-methylpyrimidin-4-yl)oxy)cyclohexyl)-N-methyl-3-(1-methyl-1H-pyrazol-4-yl)-1H-pyrazolo[4,3-c]pyridin-6-amine] | 1 to 10 |
| CCNc1cc2c(cn1)c(-c1cnn(C)c1)nn2[C@H]1CC[C@@H](Oc2cnn(C)c2C)CC1 [Example 226, 1-((1s,4s)-4-((1,5-dimethyl-1H-pyrazol-4-yl)oxy)cyclohexyl)-N-ethyl-3-(1-methyl-1H-pyrazol-4-yl)-1H-pyrazolo[4,3-c]pyridin-6-amine] | 1 to 10 |
